In PMC11678425, “(-)-Syringaresinol Exerts an Antidepressant-like Activity in Mice by Noncompetitive Inhibition of the Serotonin Transporter” (Pharmaceuticals, 2024):

Legend:
CUMS mice [1] = assay: Novelty suppressed feeding test (NSFT) in CUMS mice; assay type: in vivo, mouse; conditions: 10 mg/kg, i.p., 2 weeks
Description: (§1) C57BL/6 adult (6–8 weeks, body weight, 18–22 g) male mice were maintained and handled in a standard condition at the Experimental Animal Center of Southern Medical University (Guangzhou, China). Animal use was approved by the Animal Use and Care Committee of Southern Medical University (approved code: SMUL2021177, approved date: 12 December 2021). The CUMS procedure was carried out according to a protocol described previously. Except for those in the control group, mice were randomly exposed to two mild unpredictable stressors per day for 3 weeks. The stressors included water deprivation, restraint, tilted cage, wet/no bedding, rotation, peppermint, noise, and inverted light off/on. Mice in the control group were group housed without any stressors throughout the procedure. […] NSFT was performed after 16 h food deprivation, as described previously. The mouse was placed in an open field (24 × 40 × 14 cm), where a new chow was put in the center, and the latency time to bite food was counted over 10 min. Home cage feeding within a 20 min period was measured after the test. FST was carried out according to a protocol described previously. The mouse was placed into a beaker (Bomex, Beijing, China) with a height of 18 cm filled with water (22 ± 1 °C) for 6 min. The immobile time was measured during minutes 2–6. TST was performed according to a previous description. The mouse was suspended from a hook that hung from a suspension bar by placing a piece of adhesive tape on its tail about 1 cm away from the tip. The immobile time during minutes 2–6 was measured.

CUMS mice [2] = assay: Home cage food consumption after NSFT; assay type: in vivo, mouse; conditions: all tested dosages, in comparison with the control group
Description: Figure 6 Animal behavioral tests. (A) Schematic illustration of animal behavioral test timeline. Mice were exposed to CUMS for 3 weeks, as described in Section 4. […] For the CUMS group, saline was given instead of drugs. NSFT was performed after 16–18 h food deprivation, followed by FST and TST. (B) NSFT. The latency time to food in NSFT was counted. (C) Home cage food consumption. Food consumed by individual mice in the home cage (g) within a 20 min period was measured after NSFT. (D) FST. The immobility time during a 2 to 6 min period in FST was measured. (E) TST. The immobility time during 2 to 6 min was counted. n = 8–10 mice/group. Bars represent the mean ± SEM. * p < 0.05 compared with the control or CUMS group, respectively, by one-way ANOVA followed by post hoc tests. ns, not significant.
NSFT was performed after 16 h food deprivation, as described previously. The mouse was placed in an open field (24 × 40 × 14 cm), where a new chow was put in the center, and the latency time to bite food was counted over 10 min. Home cage feeding within a 20 min period was measured after the test. FST was carried out according to a protocol described previously. The mouse was placed into a beaker (Bomex, Beijing, China) with a height of 18 cm filled with water (22 ± 1 °C) for 6 min. The immobile time was measured during minutes 2–6. […] The immobile time during minutes 2–6 was measured.

[3] = Daily body weight during drug administration; conditions: all tested dosages, 14-day administration, in comparison with the control group
[4] = tested on: BDNF, PSD-95, GluA1, and vGluT1; assay: Immunoblot of synaptic proteins in hippocampus of CUMS mice; assay type: in vivo, mouse; conditions: same dosage as fluoxetine (10 mg/kg i.p.)
Text: (§2) Figure 8 SYR effects on the expression of c-Fos and synaptic proteins in the hippocampus. (A) Representative immunohistochemical images of c-Fos expression in the hippocampus with the indicated treatments. (B) Quantitative analysis for hippocampal c-Fos expression with various treatments. Protein expression level is expressed as a percentage of c-Fos fluorescence measured in the control group. Bars represent the mean ± SEM (n = 4). ** p < 0.01 compared with the control or CUMS group by one-way ANOVA followed by post hoc tests. (C) Representative immunoblots of the synaptic proteins BDNF, PSD-95, GluA1, and vGluT1 with various treatments. (D–G) Quantification of the expression of synaptic proteins BDNF (D), PSD-95 (E), GluA1 (F), and vGluT1 (G). The expression level is expressed as a percentage of the integrated density obtained from the control group. Bars represent the mean ± SEM (n = 4). * p < 0.05, ** p < 0.01 by one-way ANOVA followed by post hoc tests.
Synaptic proteins were extracted from mPFC or hippocampus tissues using RIPA lysis buffer, respectively. Expression of the indicated proteins under various treatments was then analyzed by immunoblotting, as previously reported. […] Quantification of immunoreactive protein bands was performed using Image J v1.53u, and GAPDH was used as an internal reference to normalize expression levels of those proteins, respectively.

c-Fos [5] = assay: c-Fos immunohistochemistry in hippocampus of CUMS mice; assay type: in vivo, mouse; conditions: same dosage as fluoxetine (10 mg/kg i.p.)
Text: as §2
Mouse mPFC and hippocampal slices were prepared as previously described. Briefly, mice were deeply anesthetized with 4% pentobarbital sodium (Sigma-Aldrich, Saint Louis, MI, USA), and perfused transcardially with PBS, followed by 4% phosphate-buffered paraformaldehyde. […]

CUMS mice [6] = assay: Forced swim test (FST) in CUMS mice; assay type: in vivo, mouse; conditions: 10 mg/kg, i.p., 2 weeks
Description: as §1

CUMS mice [7] = conditions: all tested dosages, i.p.
c-Fos [8] = assay: c-Fos immunohistochemistry in mPFC of CUMS mice; assay type: in vivo, mouse; conditions: 10 mg/kg i.p.
Description: Figure 7 SYR effects on the expression of c-Fos and synaptic proteins in mPFC. (A) Representative immunohistochemical images of c-Fos expression in mPFC under the indicated treatments. Immunohistochemistry of c-Fos was performed with mPFC slices as described in Section 4. The slices were re-probed with anti-DAPI antibody. Immunofluorescence images for c-Fos (green) and DAPI (blue) were acquired by confocal microscopy. (B) Quantitative analysis for c-Fos expression in mPFC with various treatments. Protein expression is expressed as a percentage of c-Fos fluorescence measured in the control group. Bars represent the mean ± SEM (n = 4). * p < 0.05, ** p < 0.01 compared with the control or CUMS group by one-way ANOVA followed by post hoc tests, respectively. (C) Representative immunoblots of the synaptic proteins BDNF, PSD-95, GluA1, and vGluT1 with various treatments. (D–G) Quantification of the expression of the synaptic proteins BDNF (D), PSD-95 (E), GluA1 (F), and vGluT1 (G). The expression level is expressed as a percentage of the integrated density obtained from the control group. Bars represent the mean ± SEM (n = 4). * p < 0.05, ** p < 0.01 by one-way ANOVA followed by post hoc tests.
Mouse mPFC and hippocampal slices were prepared as previously described. […]

CUMS mice [9] = assay: Tail suspension test (TST) in CUMS mice; assay type: in vivo, mouse; conditions: 10 mg/kg, i.p., 2 weeks
Description: as §1

[10] = design: method as in PMID 21869687, PMID 25500685; conditions: clinically observed; cited from earlier work
5-HT1A receptor = tested on: 5-HT1A receptor; design: method as in PMID 27508501; conditions: higher potency than its inhibition of SERT activity; cited from earlier work

Compound	CUMS-induced increase in latency to food in NSFT (CUMS mice [1])	home cage food consumption (CUMS mice [2])	daily body weight changes [3]	CUMS-induced decrease in expression of synaptic proteins in the hippocampus [4]	CUMS-induced decrease in expression of c-Fos in the hippocampus (c-Fos [5])	CUMS-induced increase in immobility in FST (CUMS mice [6])	fatality rate (CUMS mice [7])	CUMS-induced decrease in expression of c-Fos in mPFC (c-Fos [8])	CUMS-induced increase in immobility in TST (CUMS mice [9])	sexual dysfunction [10]	weight gain [10]	action at 5-HT1A receptor (5-HT1A receptor)
CNCCC(Oc1ccc(C(F)(F)F)cc1)c1ccccc1 (stereo not drawn) [fluoxetine, reference compound]	remarkably alleviated	little effect	little effect	effectively alleviate	effectively alleviate	remarkably alleviated	zero fatality rate	reversed	remarkably alleviated			
N#Cc1ccc2[nH]cc(CCCCN3CCN(c4ccc5oc(C(N)=O)cc5c4)CC3)c2c1 [vilazodone]										not associated with sexual dysfunction	reduce weight gain	partial agonist
